Measured values taken from ChEMBL document CHEMBL1201862, “PubChem BioAssay data set” (2004).
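Test compounds were applied to cells in 96-well plates for 48 hours at 5 doses. Here, GI50 denotes the concentration required for 50% inhibition of growth.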 Active and inactive are the calls of the source. Rule as the data show it: active = GI50 up to about 1.1 µM and inactive = higher.

Experiments:
Experiment in all cases: NCI tumour cell line growth inhibition, 48 h
OVCAR-4 = tested on: OVCAR-4
LOX IMVI = tested on: LOX IMVI
HCT-15 = tested on: HCT-15
NCI-H460 = tested on: NCI-H460
SW-620 = tested on: SW-620
OVCAR-3 = tested on: OVCAR-3
U-251 = tested on: U-251
NCI/ADR-RES = tested on: NCI/ADR-RES
UACC-257 = tested on: UACC-257
K562 = tested on: K562
A549 = tested on: A549
786-0 = tested on: 786-0
NCI-H522 = tested on: NCI-H522
SF-268 = tested on: SF-268
HOP-62 = tested on: HOP-62
T47D = tested on: T47D
HCC 2998 = tested on: HCC 2998
SR = tested on: SR
SK-OV-3 = tested on: SK-OV-3
OVCAR-5 = tested on: OVCAR-5

SMILES	GI50 (OVCAR-4)	GI50 (LOX IMVI)	GI50 (HCT-15) [µM]	GI50 (NCI-H460)	GI50 (SW-620)	GI50 (OVCAR-3)	GI50 (U-251)	GI50 (NCI/ADR-RES)	GI50 (UACC-257)	GI50 (K562)	GI50 (A549)	GI50 (786-0)	GI50 (NCI-H522)	GI50 (SF-268)	GI50 (HOP-62)	GI50 (T47D)	GI50 (HCC 2998)	GI50 (SR)	GI50 (SK-OV-3)	GI50 (OVCAR-5)
O=[N+]([O-])/C=C/c1cn(CCCCCn2cc(/C=C/[N+](=O)[O-])c3ccccc32)c2ccccc12	2.44 µM (inactive)	0.611 µM (active)	2.17	1.79 µM (inactive)	0.682 µM (active)	1.78 µM (inactive)	1.61 µM (inactive)	10.2 µM (inactive)	3.27 µM (inactive)	0.83 µM (active)	2.96 µM (inactive)	0.392 µM (active)	10.4 µM (inactive)	2.18 µM (inactive)	3.93 µM (inactive)	8.22 µM (inactive)	1.04 µM (active)	0.973 µM (active)	23.2 µM (inactive)	9.55 µM (inactive)
Cc1cc(=O)n2nc(CN3CCCCC3)sc2n1	> 100 µM (inactive)	> 100 µM (inactive)	> 100	> 100 µM (inactive)	> 100 µM (inactive)	> 100 µM (inactive)	> 100 µM (inactive)	> 100 µM (inactive)	> 100 µM (inactive)	> 100 µM (inactive)	> 100 µM (inactive)	> 100 µM (inactive)	> 100 µM (inactive)	> 100 µM (inactive)	> 100 µM (inactive)	> 100 µM (inactive)	> 100 µM (inactive)	> 100 µM (inactive)	> 100 µM (inactive)	> 100 µM (inactive)
O=C(CC(c1ccccc1)c1c(O)c2ccccc2oc1=O)c1ccccc1 (stereo not given)	56.1 µM (inactive)	> 67.8 µM (inactive)	78.9	65.5 µM (inactive)	> 100 µM (inactive)	30.4 µM (inactive)	> 100 µM (inactive)	54.2 µM (inactive)	> 83.9 µM (inactive)	61.5 µM (inactive)	54.6 µM (inactive)	> 100 µM (inactive)	47 µM (inactive)	> 100 µM (inactive)	> 100 µM (inactive)	58.1 µM (inactive)	93.3 µM (inactive)	44.6 µM (inactive)	67.9 µM (inactive)	> 100 µM (inactive)
